Experiment [1] addresses AMP-activated protein kinase, AMPK (Homo sapiens) (UniProt P54646+O43741+P54619+Q9UGJ0+Q9Y478+Q13131+Q9UGI9). The experiment is described as follows: Activation of AMPK in human Huh-7 cells assessed as increase in AMPK phosphorylation at Thr172 residue at 10 uM measured after 12 hrs by Western blot analysis. Type of experiment: cell-based. As to conditions: filed as activator.

Experiment [2] has as its system THP-1. Description: Antiinflammatory activity in human THP-1 cells assessed as reduction in LPS-induced TNF alpha secretion at 10 uM incubated for 12 hrs measured by ELISA. The class given is functional, cell-based.
In experiment [3] the test system is THP-1. The experiment is described as follows: Antiinflammatory activity in human THP-1 cells assessed as reduction in LPS-induced IL6 secretion at 10 uM incubated for 12 hrs measured by ELISA. The class given is functional, cell-based.

Active and inactive are the calls of the source. The calls are words filed in the database; no cut-off is given here.

We go through 20 compounds from ChEMBL document CHEMBL4732083, “Synthesis and anti-inflammatory activity of saponin derivatives of δ-oleanolic acid” (Eur J Med Chem, 2021).

Turning to `CC1(C)CC[C@]2(C(=O)O)CC[C@]3(C)C(=CC[C@@H]4[C@@]5(C)CC[C@H](O)[C@@](C)(CO)[C@@H]5CC[C@]43C)[C@@H]2C1`, the result in experiment [1] was Active.
Regarding `C=C(C)[C@@H]1CC[C@]2(C(=O)O)CC[C@]3(C)[C@H](CC[C@@H]4[C@@]5(C)CC[C@H](O)C(C)(C)[C@@H]5CC[C@]43C)[C@@H]12`, in experiment [1], the outcome was Active.
Same read-out and setting: with `CC1(C)CC[C@]2(C(=O)O)CC[C@]3(C)C(=CC[C@@H]4[C@@]5(C)CC[C@H](O[C@@H]6O[C@H](C(=O)O)[C@@H](O)[C@H](O)[C@H]6O)C(C)(C)[C@@H]5CC[C@]43C)[C@@H]2C1` the entry was “Active”.
Turning to `C[C@H]1[C@H](C)CC[C@]2(C(=O)O)CC[C@]3(C)C(=CC[C@@H]4[C@@]5(C)CC[C@H](O)C(C)(C)[C@@H]5CC[C@]43C)[C@H]12`, in experiment [1], the outcome was Active.
For the compound `C[C@H]1[C@H](C)CC[C@]2(C(=O)O[C@@H]3O[C@H](CO[C@@H]4O[C@H](CO)[C@@H](O[C@@H]5O[C@@H](C)[C@H](O)[C@@H](O)[C@H]5O)[C@H](O)[C@H]4O)[C@@H](O)[C@H](O)[C@H]3O)CC[C@]3(C)C(=CC[C@@H]4[C@@]5(C)C[C@@H](O)[C@H](O)[C@@](C)(CO)[C@@H]5[C@H](O)C[C@]43C)[C@H]12`, in experiment [1], the result was Active.
`CC1(C)CC[C@]2(C(=O)O)CC[C@]3(C)C(=CC[C@@H]4[C@@]5(C)CC[C@H](O[C@@H]6O[C@H](C(=O)O)[C@@H](O)[C@H](O[C@@H]7OC[C@@H](O)[C@H](O)[C@H]7O)[C@H]6O)C(C)(C)[C@@H]5CC[C@]43C)[C@@H]2C1`: the result in experiment [1] was Active.
For the compound `CC1(C)CC[C@]2(C(=O)O)CC[C@]3(C)C(=C2C1)CC[C@@H]1[C@@]2(C)CC[C@H](O[C@@H]4OC[C@H](O)[C@H](O)[C@H]4O[C@@H]4O[C@H](CO)[C@@H](O)[C@H](O)[C@H]4O)C(C)(C)[C@@H]2CC[C@]13C`, the result in the experiment with THP-1 [2] and with THP-1 [3] was Active.
As for `CC1(C)[C@@H](O[C@H]2O[C@H](C(=O)O)[C@@H](O)[C@H](O)[C@H]2O[C@@H]2O[C@H](C(=O)O)[C@@H](O)[C@H](O)[C@H]2O)CC[C@]2(C)[C@H]3C(=O)C=C4[C@@H]5C[C@@](C)(C(=O)O)CC[C@]5(C)CC[C@@]4(C)[C@]3(C)CC[C@@H]12`, in experiment [1], the result was Active.
As to `C[C@@H]1CC[C@]2(C(=O)O[C@@H]3O[C@H](CO)[C@@H](O)[C@H](O)[C@H]3O)CC[C@]3(C)C(=CC[C@@H]4[C@@]5(C)CC[C@H](O[C@@H]6OC[C@H](O)[C@H](O)[C@H]6O)C(C)(C)[C@@H]5CC[C@]43C)[C@@H]2[C@]1(C)O`, the result in experiment [1] was Active.
On the same count and under the same terms, with `C[C@H]1[C@H](C)CC[C@]2(C(=O)O)CC[C@]3(C)C(=CC[C@@H]4[C@@]5(C)C[C@@H](O)[C@H](O)C(C)(C)[C@@H]5CC[C@]43C)[C@H]12` the entry was “Active”; with `C[C@H]1[C@H](C)CC[C@]2(C(=O)O[C@@H]3O[C@H](CO[C@@H]4O[C@H](CO)[C@@H](O[C@@H]5O[C@@H](C)[C@H](O)[C@@H](O)[C@H]5O)[C@H](O)[C@H]4O)[C@@H](O)[C@H](O)[C@H]3O)CC[C@]3(C)C(=CC[C@@H]4[C@@]5(C)C[C@@H](O)[C@H](O)[C@@](C)(CO)[C@@H]5CC[C@]43C)[C@H]12`, “Active”; with `C[C@H]1[C@H](C)CC[C@]2(C(=O)O)CC[C@]3(C)C(=CC[C@@H]4[C@@]5(C)C[C@@H](O)[C@H](O)[C@@](C)(CO)[C@@H]5CC[C@]43C)[C@H]12`, “Active”.
Still for that read-out and setting: the result for `CC1(C)CC[C@]2(C(=O)O[C@@H]3O[C@H](CO)[C@@H](O)[C@H](O)[C@H]3O)CC[C@]3(C)C(=CC[C@@H]4[C@@]5(C)CC[C@H](O[C@@H]6O[C@H](C(=O)O)[C@@H](O)[C@H](O)[C@H]6O[C@@H]6O[C@H](CO)[C@@H](O)[C@H](O)[C@H]6O)C(C)(C)[C@@H]5CC[C@]43C)[C@@H]2C1` reads “Active”; that for `C[C@@H]1O[C@@H](O[C@H]2[C@H](O[C@H]3CC[C@@]4(C)[C@@H](CC[C@]5(C)[C@@H]4CC=C4[C@@H]6CC(C)(C)CC[C@]6(C(=O)O[C@@H]6O[C@H](CO[C@@H]7O[C@H](CO)[C@@H](O[C@@H]8O[C@@H](C)[C@H](O)[C@@H](O)[C@H]8O)[C@H](O)[C@H]7O)[C@@H](O)[C@H](O)[C@H]6O)CC[C@]45C)[C@]3(C)CO)OC[C@H](O)[C@@H]2O)[C@H](O)[C@H](O)[C@H]1O`, “Active”.
With `C[C@H]1[C@H](C)CC[C@]2(C(=O)O)CC[C@]3(C)C(=CC[C@@H]4[C@@]5(C)C[C@@H](O)[C@H](O)[C@@](C)(CO)[C@@H]5[C@H](O)C[C@]43C)[C@H]12`, the outcome in experiment [1] was Active.
Consider `CC1(C)CC[C@]2(C(=O)O)CC[C@]3(C)C(=CC[C@@H]4[C@@]5(C)C[C@@H](O)[C@H](O)C(C)(C)[C@@H]5CC[C@]43C)[C@@H]2C1`, for which the result in experiment [1] was Active.
`C[C@@H]1CC[C@]2(C(=O)O)CC[C@]3(C)C(=CC[C@@H]4[C@@]5(C)CC[C@H](O[C@@H]6OC[C@H](O)[C@H](O)[C@H]6O)C(C)(C)[C@@H]5CC[C@]43C)[C@@H]2[C@]1(C)O`: the result in experiment [1] was Active.
For `CC1(C)CC[C@]2(C(=O)O[C@@H]3O[C@H](CO[C@@H]4O[C@H](CO)[C@@H](O)[C@H](O)[C@H]4O)[C@@H](O)[C@H](O)[C@H]3O)CC[C@]3(C)C(=CC[C@@H]4[C@@]5(C)CC[C@H](O[C@@H]6OC[C@H](O)[C@H](O)[C@H]6O)[C@@](C)(CO)[C@@H]5CC[C@]43C)[C@@H]2C1`, the outcome in experiment [1] was Active.
As to `CC1(C)CC[C@]2(C(=O)O)CC[C@]3(C)C(=CC[C@@H]4[C@@]5(C)CC[C@H](O)C(C)(C)[C@@H]5CC[C@]43C)[C@@H]2C1`, in experiment [1], the outcome was Active.
On the same count and under the same terms, the result for `CC1(C)[C@@H](O)CC[C@]2(C)[C@H]3C(=O)C=C4[C@@H]5C[C@@](C)(C(=O)O)CC[C@]5(C)CC[C@@]4(C)[C@]3(C)CC[C@@H]12` reads “Active”.
